According to patent publication US20240293416A1, “TREATMENT OF LIVER DISORDERS WITH A THR-ß AGONIST” (Terns Pharmaceuticals, Inc., priority 2021, published 2024):
Entries after “also recorded” stand apart in the source; their conditions may differ.

Tests used:
[1] = tested on: SHBG, Apo B and serum lipids; experiment: Multiple ascending dose trial: serum PD biomarkers; type: in vivo, human
Description: A multiple-ascending dose clinical trial of Compound 1 was performed.
(See Table 5, FIG. 7.) PK parameters were estimated via noncompartmental methods using Phoenix® WinNonlin® (Certara, LP, Princeton, NJ). Concentrations of serum pharmacodynamic (PD) biomarkers apolipoprotein B (Apo B) and sex hormone binding globulin (SHBG) were measured using an immunoassay and serum lipids were determined using spectrophotometry.
PD sampling was also performed. Percent change from baseline for PD markers were calculated using an ANCOVA model with percent change from baseline as dependent variable, treatment group as fixed effect, and baseline as covariate. Analyses used observed data only without imputation for missing data.

[2] = pH and solubilizer effect on solubility; type: physicochemical
Description: Solubility of Compound 1 (potassium salt) was evaluated at various pH levels.

[3] = pH effect on PK performance in beagle dogs; type: in vivo; details: 10 mg capsule, 5% SLS; pentagastrin vs famotidine pre-treatment, n=3 per group
Source text: To determine the pH effect on PK performance, beagle dogs were divided into two groups (n=3 per group).

[4] = Multiple ascending doses in healthy subjects with elevated LDL-c: safety; type: in vivo, human; details: 1, 3, 6 or 10 mg once daily for 14 days
Source text: Objectives: Assess the overall safety and tolerability of multiple ascending doses of Compound 1 in healthy subjects with elevated LDL-c.
Primary Endpoints: Treatment-emergent adverse events (TEAEs), vital signs, clinical laboratory parameters, and electrocardiogram (ECG) monitoring.

[5] = Multiple ascending doses in healthy subjects with elevated LDL-c: PK; type: in vivo, human; details: 1, 3, 6 or 10 mg once daily for 14 days
Source text: Secondary Objectives: Evaluate the PK and PD of Compound 1 in healthy subjects with elevated LDL-c following multiple ascending doses of Compound 1.

[6] = Solubilizer compatibility in formulation study; type: physicochemical; details: co-formulation
Source text: The level of SLS between 1.5% to 5.0% w/w was investigated.

[7] = BCS classification; type: physicochemical
[8] = target: T1, BCRP (Homo sapiens, UniProt Q9UNQ0); experiment: In vitro transporter inhibition, BCRP; type: in vitro ADME
T1 sequence (Q9UNQ0 1-655): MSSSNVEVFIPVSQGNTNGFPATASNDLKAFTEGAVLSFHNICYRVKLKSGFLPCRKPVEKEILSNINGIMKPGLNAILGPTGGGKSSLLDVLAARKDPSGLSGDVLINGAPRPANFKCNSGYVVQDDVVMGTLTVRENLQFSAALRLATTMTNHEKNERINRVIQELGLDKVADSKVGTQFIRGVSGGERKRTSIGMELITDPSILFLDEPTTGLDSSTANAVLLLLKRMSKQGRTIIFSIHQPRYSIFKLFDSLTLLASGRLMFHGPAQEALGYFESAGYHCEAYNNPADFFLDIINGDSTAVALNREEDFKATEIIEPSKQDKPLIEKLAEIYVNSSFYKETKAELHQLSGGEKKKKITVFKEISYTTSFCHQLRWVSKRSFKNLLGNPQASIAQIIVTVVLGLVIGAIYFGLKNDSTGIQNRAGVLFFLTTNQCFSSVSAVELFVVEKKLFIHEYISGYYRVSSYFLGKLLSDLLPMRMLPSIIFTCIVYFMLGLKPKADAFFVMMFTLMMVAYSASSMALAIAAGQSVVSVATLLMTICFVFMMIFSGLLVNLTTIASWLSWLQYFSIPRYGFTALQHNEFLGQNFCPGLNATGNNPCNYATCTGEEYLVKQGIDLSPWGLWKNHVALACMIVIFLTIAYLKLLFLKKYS

[9] = tested on: biopsy-confirmed DIO-NASH mice; experiment: DIO-GAN NASH mice: body weight, organ weight, body composition; type: in vivo, C57BL/6JRj mice; details: doses per Table 16
Source text: C57BL/6JRj male mice (n=138) were fed the Gubra Amylin NASH (GAN) diet (40% fat, 22% fructose, 2% cholesterol [D09100310, Research Diets]) or lean chow diet for 35 weeks before treatment start. Prior to treatment all animals underwent liver biopsy for histological confirmation (steatosis score ≥2 and fibrosis stage ≥1) and stratification using the nonalcoholic fatty liver disease (NAFLD) activity scoring (NAS) and fibrosis staging system. The diet-induced obese mice on GAN diet (DIO-GAN) were randomized to 8 treatment groups (Table 16) based on percent-area of picrosirius red (PSR) staining. […] Vehicle-dosed lean chow-fed controls served as healthy controls (n=10). Mice were maintained on their respective diets (GAN or lean chow) for the duration of the study. Within-subject comparisons (pre-vs. post-treatment) were performed for liver biopsy histopathological scores. Terminal quantitative endpoints included plasma/liver biochemistry, liver histomorphometry, and liver transcriptomic analysis by RNAseq.
The diet-induced obese, Gubra Amylin NASH model (DIO-GAN) recapitulates many of the histopathological features of human NASH (Hansen 2020). […] To induce NASH disease, C57BL/6JRj mice were maintained a on diet high in fat, cholesterol, and fructose (GAN diet) for >35 weeks. Prior to therapeutic intervention, mice were biopsied to assess NASH disease and fibrosis severity; mice with a steatosis score <2 and fibrosis stage <1 were excluded from the study. DIO-GAN mice were then randomized into 8 treatment groups (n=16 per group) based on the percent fractional area of Picrosirius red (PSR) staining of the pre-treatment biopsy as well as body fat tissue mass determined by whole body Echo-magnetic resonance imaging (EchoMRI). […] DIO-GAN mice administered vehicle by oral gavage once daily served as a control. Mice were treated for a total of 12 weeks and were maintained on GAN diet throughout the study. Lean mice (n=10), maintained on normal chow diet throughout the study served as healthy controls.
Body composition was determined at baseline (Week-1) and Week 11 of the study by whole body EchoMRI to determine the relative levels lean and fat tissue as a percentage of body weight. Baseline levels of lean and fat tissue were well balanced across treatment groups (FIGS. 33A and 33B).

Row | Compound | total cholesterol, LDL-c, Apo B, and triglycerides ([1]; all dose levels) | HDL-c ([1]; day 15) | total cholesterol, LDL-c, Apo B, and triglycerides ([1]; day 15, 10 mg dose cohort) | SHBG ([1]; multiple doses, even at 3 mg QD) | aqueous solubility ([2]; even in the salt form) | Solubility ([2]; pH 10.0 buffer, 24 h, with 2 wt % SLS, 25° C., potassium salt) | pH effect on plasma concentrations [3] | ALT increase to ≥2×ULN [4] | free T4 [4] | safety and tolerability [4] | severity of AEs [4] | PK dose proportionality and variability [5] | compatibility with sodium lauryl sulfate (SLS) [6] | effect of ionic surfactants (e.g., SLS) on solubility [6] | BCS classification [7] | IC50 [8] | body weight at the end of study vs DIO-GAN vehicle control ([9]; PO QD 12 weeks) | body weight during the study ([9]; PO QD 12 weeks) | fat tissue (% BW, EchoMRI) ([9]; Week 11) | relative lean tissue mass (EchoMRI) ([9]; Week 11)
1 | N#Cc1nn(-c2cc(Cl)c(Oc3n[nH]c(=O)c4ccccc34)c(Cl)c2)c(=O)[nH]c1=O [Compound 1, 2-(3,5-dichloro-4-((4-oxo-3,4-dihydrophthalazin-1-yl)oxy)phenyl)-3,5-dioxo-2,3,4,5-tetrahydro-1,2,4-triazine-6-nitrile] | Reductions | did not significantly change | significant reductions | significant and dose-dependent increases | very low aqueous solubility | 308.2 µg/mL | Minimal pH effect | No subject | Dose-dependent declines | generally safe and well-tolerated | mild to moderate with no apparent dose relationship | dose-proportional PK with low variability | good compatibility; also recorded: minimal or no degradation | increased the aqueous solubility; also recorded: dramatic enhancement of solubility at all pH levels | BCS Class IV |  |  |  |  | 
2 | Cn1cc(C(=O)O)c2ccc(C3CCC(OCc4c(-c5c(Cl)cccc5Cl)noc4C4CC4)CC3)cc21 (centres unmarked) [Compound 2] |  |  |  |  |  |  |  |  |  |  |  |  |  |  |  | 4.39 µM | significantly lower | decreased body weight | reduced levels of fat tissue | significant increases
